Source: US11674962B2, “Therapeutic and diagnostic methods for cancer” (Genentech, Inc., priority 2017, dated 2023)

System: locally advanced or metastatic non-small cell lung cancer (NSCLC)
Test: OAK phase III clinical trial (NCT02008227): atezolizumab vs docetaxel, outcomes by bTMB score and PD-L1 IHC
Assay type: in vivo, human
Procedure: A blood-based assay was used to evaluate the association between clinical response to treatment with atezolizumab (MPDL3280A) and blood tumor mutational burden (bTMB) score in patients with non-small cell lung cancer (NSCLC) enrolled in two clinical trials, a phase II clinical trial, POPLAR (Clinical Trial ID No.: NCT01903993), and a phase III clinical trial, OAK (Clinical Trial ID No.: NCT02008227), in which atezolizumab was administered as a monotherapy.
Pre-treatment blood samples from patients with NSCLC who were enrolled in the POPLAR and/or the OAK studies, in which atezolizumab was administered as a monotherapy, were evaluated for bTMB score and/or maximum somatic allele frequency (MSAF).
The OAK (Clinical Trial ID No.: NCT02008227) patient population evaluated for bTMB score consisted of 583 patients. Patients were eligible for enrollment in the OAK study if they had locally advanced or metastatic (e.g., stage IIIB, stage IV, or recurrent) NSCLC; disease progression during or following treatment with a prior platinum-containing regimen for locally advanced, unresectable/inoperable, or metastatic NSCLC, or disease recurrence within 6 months of treatment with a platinum-based adjuvant/neoadjuvant regimen; measurable disease, as defined by RECIST v1.1; and an ECOG performance status of 0 or 1. Participants were randomized to receive either atezolizumab at a dose of 1200 mg intravenously every three weeks or docetaxel 75 mg per square meter (mg/m^2) intravenously every three weeks. Treatment with atezolizumab could be continued as long as participants were experiencing clinical benefit, i.e., in the absence of unacceptable toxicity or symptomatic deterioration attributed to disease progression.
Analysis of bTMB was performed retrospectively. Progression-free survival (PFS) was defined as the time between date of randomization and date of first documented disease progression as assessed by the investigator using RECIST v.1.1 or death from any cause, whichever occurred first. Overall survival (OS) was defined as the time between the date of randomization until death due to any cause. Treatment arms were compared for OS and PFS individually using a univariate Cox regression model without stratification in the biomarker evaluable-population (BEP) and their subgroups or using a stratified (by randomization stratification factors) Cox model in the ITT population. No multiplicity correction was applied to p-values or confidence intervals (CI). Kaplan-Meier methodology was used to estimate median OS and PFS and construct survival curves.
In the OAK ITT population (N=850), 797 samples were available for analysis. Of these samples, 13 were removed for sample contamination >1%; 42 were removed for median exon coverage <800×; and 100 were removed for low MSAF<1%.
The OAK BEP (N=642) included 59 patients with EGFR mutation or ALK rearrangement, and 583 without known alterations.
To identify somatic mutations and calculate a bTMB score, whole blood samples obtained from each patient (collected in EDTA or Streck tubes) were processed through a series of spins to isolate plasma, from which cell free DNA (cfDNA) was extracted for sequencing analysis. Specifically, at least 20 ng purified cfDNA was used for library construction. Next-generation sequencing libraries using fragment barcodes and hybrid capture were constructed to analyze and sequence a pre-determined set of 394 genes that covered approximately 1.125 Mb of the exome. Specifically, purified libraries were hybrid captured using a 394-gene bait set and then further purified, pooled and loaded on an ILLUMINA® HISEQ® 4000 sequencing system. Sequenced libraries were aligned and sorted. In order to accurately call variants at low allele frequencies and minimize artifacts from sequencing, PCR, or DNA damage-related errors, sequenced libraries were processed by a cfDNA computational pipeline that corrected errors via the use of fragment barcodes. […]

[1] = OAK BEP with valid bTMB and PD-L1 IHC results, bTMB ≥16, n=156
[2] = OAK, bTMB score subgroup ≥10 (251 patients), atezolizumab vs docetaxel
[3] = OAK, bTMB score subgroup ≥16 (158 patients), atezolizumab vs docetaxel
[4] = OAK, bTMB score subgroup ≥20 (105 patients), atezolizumab vs docetaxel

atezolizumab
OS HR (95% CI) (OAK BEP with valid bTMB and PD-L1 IHC results, TC3 or IC3, n=103): 0.44 (0.27-0.71) | OS HR (95% CI) [1]: 0.64 (0.44-0.93) | PFS HR (95% CI) [1]: 0.64 (0.46, 0.91) | OS HR (95% CI) (OAK, BEP (n = 583), atezolizumab vs docetaxel): 0.64 | PFS HR (95% CI) (OAK, IHC− (complementary to TC1/2/3) and bTMB ≥16, n=93): 0.78 | PFS HR (95% CI) (OAK, IHC− (complementary to TC1/2/3 or IC1/2/3) and bTMB ≥16, n=53): 0.68 | PFS HR (95% CI) (OAK, IHC− (complementary to TC2/3) and bTMB ≥16, n=110): 0.69 | PFS HR (95% CI) (OAK, IHC− (complementary to TC2/3 or IC2/3) and bTMB ≥16, n=94): 0.65 | PFS HR (95% CI) (OAK, IHC− (complementary to TC3 or IC3) and bTMB ≥16, n=126): 0.70 | OS HR (95% CI) (OAK, ITT (n = 850), atezolizumab vs docetaxel): 0.73 | PFS HR (95% CI) (OAK, PD-L1 IHC TC0 and IC0 (bTMB evaluable), n=250): 0.95 | PFS HR (95% CI) (OAK, PD-L1 IHC TC1/2/3, IHC+ (bTMB evaluable), n=192): 0.65 | PFS HR (95% CI) (OAK, PD-L1 IHC TC1/2/3 or IC1/2/3, IHC+ (bTMB evaluable), n=328): 0.83 | PFS HR (95% CI) (OAK, PD-L1 IHC TC2/3, IHC+ (bTMB evaluable), n=150): 0.65 | PFS HR (95% CI) (OAK, PD-L1 IHC TC2/3 or IC2/3, IHC+ (bTMB evaluable), n=200): 0.71 | PFS HR (95% CI) (OAK, TC0 and IC0 and bTMB <16, n=197): 1.03 | PFS HR (95% CI) (OAK, TC0 and IC0 and bTMB ≥16, n=53): 0.68 | PFS HR (95% CI) (OAK, TC1/2/3 and bTMB <16, n=129): 0.72 | PFS HR (95% CI) (OAK, TC1/2/3 and bTMB ≥16, n=63): 0.55 | PFS HR (95% CI) (OAK, TC1/2/3 or IC1/2/3 and bTMB <16, n=225): 0.94 | PFS HR (95% CI) (OAK, TC1/2/3 or IC1/2/3 and bTMB ≥16, n=103): 0.65 | PFS HR (95% CI) (OAK, TC2/3 and bTMB <16, n=106): 0.70 | PFS HR (95% CI) (OAK, TC2/3 and bTMB ≥16, n=44): 0.55 | PFS HR (95% CI) (OAK, TC2/3 or IC2/3 and bTMB <16, n=140): 0.73 | PFS HR (95% CI) (OAK, TC2/3 or IC2/3 and bTMB ≥16, n=60): 0.65 | PFS HR (95% CI) (OAK, TC3 or IC3 and bTMB <16, n=73): 0.71 | OS HR [2]: 0.69 | PFS HR [2]: 0.73 | OS HR [3]: 0.64 | PFS HR [3]: 0.65 | OS HR [4]: 0.65 | PFS HR [4]: 0.61 | median OS (OAK, bTMB≥16, per treatment arm): 13.5 months | best overall response rate (OAK, bTMB≥16 patients, per treatment arm): 21% | PFS HR (OAK, reference bTMB score of 14 (Dx+, n=188), atezolizumab vs docetaxel): 0.68 | PFS HR (OAK, reference bTMB score of 18 (Dx+, n=132), atezolizumab vs docetaxel): 0.66
